The results in this text go back to patent publication US20190224238A1, “TUMOR THERAPEUTIC DRUG” (HUBEI SOUNDNY BIO TECH CO., LTD., priority 2016, published 2019).

The nature of data set [1]: Toxicity and side effect test in BALB/c mice (GPT, serum creatinine, APTT, PT). The class given is in vivo. The settings on record: tail vein, once a day for 7 days; blood on 8th day. As for the experimental part: 3) The prepared H22-MPs (MTX) was injected into 8 BALB/c mice via tail vein respectively, as the experimental group 1; the prepared Ery-MPs (MTX) was injected into 8 BALM mice via tail vein respectively, as the experimental group 2; 8 mice BALB/c mice were injected with methotrexate via tail vein at a dose of 1 μg/g, as the experimental group 3; 8 mice BALB/c mice were injected with 0.9% (g/ml) physiological saline via tail vein, as the control group.
4) On the 8th day, venous blood was taken from the mice in the experimental group 1, the experimental group 2, the experimental group 3 and the control group, and the content of glutamic-pyruvic transaminase, creatinine in serum and the content of APTT and PT in the blood were detected. The body weights of the mice were weighed.

Data set [2] deals with H22 cell hepatoma ascites model. Put plainly: Survival of BALB/c mouse H22 hepatoma ascites model. The class given is in vivo. The conditions noted are these: until the 34th (H22-MPs), 33th (Ery-MPs), 31th (methotrexate) day; 10 mice per group.
Procedure: 3) On the first day, 5×10^4 H22 cells were intraperitoneally inoculated into BALB/c mice, and a total of 40 BALB/c mice were injected to obtain the one with H22 cell hepatoma ascites model, which were randomly divided into four groups equally, namely experimental group 1, experimental group 2, experimental group 3 and control group. The BALB/c mice in experimental group 1 were intraperitoneally injected with H22-MPs (MTX); the BALM mice in experimental group 2 were intraperitoneally injected with Ery-MPs (MTX); the BALB/c mice in experimental group 3 were intraperitoneally injected with methotrexate at a dose of 1 μg/g; and the BALB/c mice in the control group were intraperitoneally injected with 200 μL of 0.9% (g/ml) physiological saline.
4) From the 4th day, according to the same injection procedure, the experimental groups were injected with H22-MPs (MTX), Ery-MPs (MTX) and chemotherapy drug (methotrexate) once a day for 7 consecutive days, respectively, while the control group was injected with 200 μL 0.9% (g/ml) physiological saline once a day for 7 consecutive days. From the 11th day, all of the BALB/c mice were fed normally, and the survival status of the BALB/c mice in each group was observed.
The test system of data set [3] is Lewis cell lung cancer model. The settings on record: tail vein, once a day for 10 days from 5th day.
Procedure: 3) On the 1st day, 1×10^6 Lewis cells were inoculated into a C57BL/6 mouse via tail vein, and a total of 32 C57BL/6 mice were injected to obtain the C57BL/6 mice of Lewis cell lung cancer model which were randomly divided into four groups equally, namely, experiment group 1, experiment group 2, experiment group 3 and control group.
From the 15th day, all of the C57BL/6 mice were fed normally, and the survival status of the C57BL/6 mice in each group was observed.

Consider `CN(Cc1cnc2nc(N)nc(N)c2n1)c1ccc(C(=O)N[C@@H](CCC(=O)O)C(=O)O)cc1` [methotrexate], for which, in data set [1], the “average activated partial prothrombin time (APTT)” value came to 16.5 s, the “average plastin time (PT)” value came out at 13.13 s and the “average serum creatinine content” value turned out to be 26.13 µmol/L. The same compound returned a total mice died in data set [2] of 9 mice. Moreover, in data set [3], the “therapeutic effect on lung cancer in mice (survival curve)” value is “much poorer than that of Ery-MPs (MTX) and LLC-MPs (MTX)”.
